Numbered stars: 1 amine (or outer) side, 2 acyl side, 3 side chain; on linkers, the order of the positions; unused ones are H or OH. Square brackets hold non-standard residues; d marks the D form. Peptide text beside a SMILES is read from it. * marks the point of attachment. ξ: configuration not given here. Sta(3ξ) = CC(C)C[C@H](N[*:1])C(O)CC(=O)[*:2]; X1 = CC(C)CC(N[*:1])C(O)CC(=O)[*:2]; For = O=C*

As usually defined, the IC50 is the concentration at which inhibition is half-maximal. A lower IC50 goes with higher potency.

The assay concerns the target Renin (Sus scrofa). The assay can be described thus: In vitro inhibitory activity towards porcine kidney renin.

Regarding `CC[C@H](C)[C@H](NC(=O)CC(O)[C@H](CC(C)C)NC(=O)[C@H](Cc1cnc[nH]1)NC(=O)[C@H](Cc1ccccc1)NC(=O)[C@@H]1CCCN1C(=O)[C@H](Cc1cn(C=O)c2ccccc12)NC(C)=O)C(N)=O` (stereo partly drawn) [Ac-Ftr-Pro-Phe-His-Sta-Ile-NH2], the IC50 was found to be 120 nM.
With `CC(=O)N[C@@H](Cc1cn(C=O)c2ccccc12)C(=O)N1CCC[C@H]1C(=O)N[C@@H](Cc1ccccc1)C(=O)N[C@@H](Cc1cnc[nH]1)C(=O)NC(CC(C)C)C(O)CC(=O)N[C@H](C(=O)N[C@@H](Cc1cn(C=O)c2ccccc12)C(N)=O)C(C)C` (stereo partly drawn) [Ac-Ftr-Pro-Phe-His-Sta-Val-Ftr-NH2] (Ac-W(For)PFH[X1]VW(For)-NH2) the figure was 4.9 nM; with `CC[C@H](C)[C@H](NC(=O)CC(O)[C@H](CC(C)C)NC(=O)[C@H](Cc1cnc[nH]1)NC(=O)[C@H](Cc1ccccc1)NC(=O)[C@@H]1CCCN1C(=O)[C@H](Cc1cnc[nH]1)NC(C)=O)C(N)=O` (stereo partly drawn) [Ac-His-Pro-Phe-His-Sta-Ile-NH2] (Ac-HPFH[Sta(3ξ)]I-NH2), 1500 nM.

For the origin of these results see BindingDB's records for doi:10.1021/jm00396a006 (Upjohn, 1988).
